The values below come from patent US20090031433A1, “METHODS FOR SCREENING INSECTICIDES” (priority 2004, published 2009).

Experiment [1] concerns D. melanogaster control strains (CONTROL 1, CONTROL 2). Description: Topical application bioassay on adult females, control strains. It counts as in vivo, Drosophila melanogaster. The settings on record: 50 ppm topical application, by 5 hours, 3 independent experiments. As for the experimental part: (§1) For testing on adults by topical application of compounds, a method has been adapted from Dapkus (Drosophila Information Newsletter, Volume 1, January 1991; http://jfly.iam.u-tokyo.ac.jp/html/din/DIN_Vol_01—9101.txt). 0-3 day old adult D. melanogaster females are anaesthetised using CO2, and 0.4 uL of compound dissolved in acetone is applied to the abdomens of these females using a Hamilton pipette. After compound application, the flies are cultured under normal conditions for the required time intervals, and either visually assessed (as in Example 6.2) or harvested for chemical analysis (Example 7). Ideally the experiment is repeated on 3 separate ocassions
(§2) The effects of the compounds on the whole insects (larvae and adults) are monitored by visual assessment, daily or at a frequency as required. In one type of assessment, the mortality of the insects over time is scored. For example, if the adult test is used, the insects are monitored at time points that have been determined previously to be suitable for the experiment. The number of dead flies at each time point is scored.
(§3) Bioassays are carried out as described above. In one example, the insecticide Malathion was applied to 20 females at a dose of 50 ppm per time point to be assessed, according to the topical application method described above. […]

For experiment [2], the system named is D. melanogaster MUTANT strain (dhr96_hairpin / GAL4-arm, reduced dhr96 expression). Description: Topical application bioassay on adult females, dhr96 knockdown mutant strain. It counts as in vivo, Drosophila melanogaster. To be noted: 50 ppm topical application, at 5 hours, 3 independent experiments. How it is done:
as §1, §2, §3

`CCOC(=O)CC(SP(=S)(OC)OC)C(=O)OCC` (centres unmarked) [Malathion] registered a percentage mortality in experiment [1] of at least 95%. Besides, the mortality result in experiment [2] was “no or significantly reduced mortality”.
